Laboratory results reported in US20230129651A1, “HAIRPIN STRUCTURE NUCLEIC ACID MOLECULES CAPABLE OF MODULATING TARGET GENE EXPRESSION AND USES THEREOF” (KOREA ADVANCED INSTITUTE OF SCIENCE AND TECHNOLOGY, priority 2021, published 2023).
In the oligonucleotide strings, read from the 5' end, every base follows the letter of its sugar. An asterisk marks phosphorothioate; unmarked linkages are phosphodiester. Other units and linkages are bracketed, terminal groups are in braces. A string of capitals states the bases alone. d = 2'-deoxy (DNA)

What was measured:
cells = assay: Cytotoxicity assay of chemically modified miRNA triggers (CCK-8); format: cell-based; details: after transfection
Experimental: (§1) The miRNA triggers were assayed for cytotoxicity and apoptosis induction, using the CCK-8 (Cell Counting Kit-8) (Dojindo, Kumamoto, Japan) according to the manufacturer's instruction. Cells were incubated in 96-well plates (5×10^3 cells/well) at 37° C. for 24 hours under a 5% CO2 atmosphere, followed by transfection. Three days after transfection, the medium was removed. A 10-fold dilution of CCK-8 solution in DMEM was added to the cells which were then incubated at 37° C. for 2 hours. After incubation, absorbance was read at 450 nm on Tecan Infinite M200 pro microplate reader (Mnnedorf, Switzerland).
In addition, FPS HP and 2′-OMe HP, which were the most resistant to degradation in biological samples, were analyzed for cytotoxicity. In this regard, the HP in which the entire nucleotides of miRNA trigger (LP) were modified with PS (expressed as PS in Table 6 and FIG. 6), the linear probe in which the entire nucleotides of miRNA trigger (LP) were modified with 2′-O-Me (expressed as 2′O-me in Table 6 and FIG. 6), the control DNA LP (expressed as DNA in Table 6 and FIG. 6), or siRNA was transfected into cells which were then measured for cell viability using the method of Reference Example 9. The result is depicted in FIG. 6. […]

[1] = test system: breast cancer cell line MDA-MB-231; assay: Cell viability of MDA-MB-231 after transfection; format: cell-based; details: Example 8-1
Experimental: as §1
The seven linear miRNA triggers prepared above and the positive control siRNA(siBcl-xL) capable of binding to bcL-xL were transfected into the breast cancer cell line MDA-MB-231 in which miR-222 is overexpressed. Cell viability was measured and is depicted in FIG. 32a.
Linear miRNA triggers that could bind to miR-222 and target bcl-xL and mcl-1, respectively, were prepared and transfected alone or in combination into the breast cancer cell line MDA-MB-231. Cell viability was measured and the measurements are depicted in FIG. 34. siRNAs against Mcl-1 and Bcl-xL were used as controls. Sequences are listed in Table 23 for the linear miRNA trigger prepared above, in Tables 22 and 9 for the controls Luc-Luc-Luc and luc-222-222, respectively, and in Table 13 for the siRNAs. Every nucleotide of the triggers and the controls was chemically modified with 2′-OMe.
Linear miRNA triggers that could bind to miR-141 or let7f and target Bcl-xL or Mcl-1 were prepared and transfected alone or in combination into the breast cancer cell line MDA-MB-231 which was then measured for cell viability. […]
The hairpin miRNA triggers prepared above were transfected into MDA-MB-231 and MDA-MB-453 cells which were then measured for cell viability. […]
Hairpin miRNA triggers which could bind to miR-222 or let-7f and target mcl-1 or bcl-xL were prepared and transfected into the breast cancer cell line MDA-MB-231 which was then measured for cell viability. […]

[2] = test system: breast cancer cell line MDA-MB-453; assay: Cell viability of MDA-MB-453 after transfection; format: cell-based; details: miR-222 not endogenous
Experimental: as §1
(§2) The selected linear miRNA triggers (bcl-xL(1)_222_222 and bcl-xL(2)_222_222) were transfected into the breast cancer cell line MDA-MB-453 to which miR-222 is not endogenous. Cell viability, and the mRNA and protein expression levels of the target gene (bcl-xL) were measured and the results are depicted in FIGS. 33a to 33c.

bcl-xL mRNA = bcl-xL mRNA expression in MDA-MB-453 cells; format: cell-based
Experimental: In the same manner as in Reference Example 4, miRNA triggers were transfected into cells. After 48 hours, total RNA was extracted using TRIzol (Thermo Fisher Scientific) according to the manufacturer's instruction. The purified RNA was treated with DNase I and then reverse transcribed in the presence of RevertAid reverse transcriptase (Thermo Fisher Scientific), with random hexamers (Thermo Fisher Scientific) serving as primers. For use in amplification of target genes, primers for target genes were added, together with the cDNA, to the SYBR Green PCR master mix (Thermo Fisher Scientific). RT-qPCR was conducted on a StepOnePlus real-time PCR system. Cq values obtained from this analysis was quantitatively analyzed based on the 2^−ΔΔC(t) method.
as §2

Bcl-xL = assay: bcl-xL protein expression in MDA-MB-453 cells; format: cell-based
Experimental: miRNA triggers were transfected into cells in the same manner as in Reference Example 4. After 72 hours, the cells were collected using a cell scraper and lysed with a RIPA buffer (NaCl 150 mM, EDTA 5 mM, Tris 50 mM, NP-40 1.0%, sodium deoxycholate 0.5%, SDS 0.1%). The cell lysate was sonicated 15 times, each for 20 sec, with a halt for 30 sec every sonication. Following centrifugation at 5,000 g for 5 min, the supernatant was taken and used to extract proteins therefrom. A total of 30-40 μg of protein sample was separated in 10-15% SDS-PAGE gel and transferred onto a PVDF membrane through a semi-dry blotting system. The membrane was blocked for 1 hour in 5% skimmed milk and incubated for 2 hours with a 1,000-fold dilution of a primary antibody in, 1% skimmed milk. […] The membrane incubated with the secondary antibody was washed three times with 1×PBST for 10 min each wash, and then reacted with Clarity Western ECL Substrate (#1705061, Bio-Rad), after which images were obtained and analyzed using ChemiDoc (Bio-rad, Hercules, USA).
as §2

GFP mRNA = assay: GFP fluorescence intensity in GFP-expressing Hela-141 cells; format: cell-based; details: trigger 30 to 60 nM, siGFP compared to siLuc
Source text: A GFP fluorescent protein-expressing plasmid (used in Chen L L, DeCerbo J N, Carmichael G G. 2008. Alu element-mediated gene silencing. EMBO J 27: 1694-1705) was transfected into Hela-141 cells to prepare GFP-expressing Hela-141 cells. As stated in Reference Example 1, a linear miRNA trigger (LP; GFP_141_141), which can target GFP mRNA (=complementarily bind to GFP mRNA to regulate the expression of GFP) and complementarily bind to miR-141, and siRNAs which target GFP and Luc (Luciferase), respectively, were synthesized in Bioneer Inc. Sequences of the LP and siRNAs and types and positions of chemical modifications in each sequence are listed in Table 8, below.
Above all, siLuc and siGFP were transfected into the GFP-expressing Hela-141 cells which were then measured for fluorescence intensity on an ELISA reader. […] In addition, the linear miRNA trigger (GFP(1)_141_141) was transfected into the GFP-expressing Hela-141 cells which were then measured for fluorescence intensity. The result is depicted in FIG. 8. For the transfection, the GFP plasmid and GFP_141_141 were used at a concentration of 0.5 to 1 μg/ml and 30 to 60 nM, respectively.

[3] = test system: miRNA-141 and PKR mRNA (2); assay: PAGE assay of dumbbell miRNA trigger binding to miRNA and target mRNA; details: 100 nM each, 37° C., 1 hour
Experimental: To a buffer (1×PBS buffer, +5 mM MgCl2, 137 mM NaCl, 10 mM PO4, 2.7 mM KCl, 5 mM MgCl2; pH 7.4) containing 100 nM of the dumbbell miRNA trigger (DP) prepared above, 100 nM miRNA and/or 100 nM target mRNA was added, followed by incubation at 37° C. for 1 hour. Each sample was loaded to a PAGE gel and run. The results are depicted in FIG. 39b.

With “2′-O-Me: linear probe with entire nucleotides modified with 2′-O-Me, Table 6; SEQ ID NO 38 (UCGAAGUACUCAGCGUAAGUUCGAAGUACUCAGCGUAAGUUCGAAGUACUCAGCGUAAGU; all 2'-O-methyl, backbone not given here)” the “cell viability versus non-transfected negative control (in words)” value (cells) was “not significantly different in viability from the negative control”.

With “PS: miRNA trigger of random sequence with entire nucleotides PS-modified, Table 6; SEQ ID NO 37 (dT*dC*dG*dA*dA*dG*dT*dA*dC*dT*dC*dA*dG*dC*dG*dT*dA*dA*dG*dT*dT*dC*dG*dA*dA*dG*dT*dA*dC*dT*dC*dA*dG*dC*dG*dT*dA*dA*dG*dT*dT*dC*dG*dA*dA*dG*dT*dA*dC*dT*dC*dA*dG*dC*dG*dT*dA*dA*dG*dT)” the cell viability (cells) was “less than 40%”.

In the case of “bcl-xL(2)_222_222: linear miRNA trigger binding miR-222 and knocking down bcl-xL; SEQ ID NO 107 (ACCCAGUAGCCAGAUGUAGCUACCCAGUAGCCAGAUGUAGCUUACCUGCCAGCCUCCUU; all 2'-O-methyl, backbone not given here)”, the “killing of breast cancer cells (cell viability)” value [1] is reported as “effectively kill breast cancer cells”, the cell viability [2] is reported as “did not significantly change” and the “mRNA expression level of target bcl-xL” value (bcl-xL mRNA) is reported as “did not significantly change”. The “protein expression level of target bcl-xL” value (Bcl-xL) was “did not significantly change”.

“siGFP: siRNA which targets GFP; SEQ ID NO 44 (UUAUGUUUCAGGUUCAGGG; unmodified RNA) [reference compound]” was tested, and the GFP fluorescence intensity (GFP mRNA) was “significantly reduced fluorescence intensity”.

B1: GFP(1)_141_141: linear miRNA trigger targeting GFP mRNA and binding miR-141; SEQ ID NO 41 (nucleic acid)
chain: CCAUCUUUACCUCACAGUGUUACCAUCUUUACCUCACAGUGUUAUUAUGUUUCAGGUUCAGGGGGA
modifications: all 2'-O-methyl, backbone not given here
In the case of B1, the GFP fluorescence intensity (GFP mRNA) is reported as “reduced GFP fluorescence intensity in a dose-dependent manner”.

B2: bcl-xL(1)_222_222: linear miRNA trigger binding miR-222 and knocking down bcl-xL; SEQ ID NO 106 (nucleic acid)
chain: ACCCAGUAGCCAGAUGUAGCUACCCAGUAGCCAGAUGUAGCUUCUCCUUCCUGCCCUUCCU
modifications: all 2'-O-methyl, backbone not given here
In the case of B2, the “killing of breast cancer cells (cell viability)” value [1] is reported as “effectively kill breast cancer cells”, the cell viability [2] is reported as “did not significantly change” and the “mRNA expression level of target bcl-xL” value (bcl-xL mRNA) is reported as “did not significantly change”. The “protein expression level of target bcl-xL” value (Bcl-xL) was “did not significantly change”.

B3: DB_PKRS20_141: dumbbell-shaped miRNA trigger, 20-nt mRNA-binding portion, binds miRNA-141 and PKR mRNA; SEQ ID NO 130 (nucleic acid)
chain: CCCCCCGAATGAGAAATACCATCTTTACCAGACAGTGTTATATTTCTCATTCCCTTCCTTNNAAGGAAGGGGGGGG
modifications: listed as DNA, chemistry not given here
B3 was tested, and the “binding to target mRNA in the absence of the miRNA” value ([3]; lane 3) was “did not bind to a target mRNA” and the “binding to miRNA and/or target mRNA in the presence of the miRNA” value ([3]; lanes 2 and 4) was “could bind to a miRNA and/or target mRNA only in the presence of the miRNA”.
